The target in one test is GluN1–1a/2B (Rattus norvegicus, UniProt P35439+Q00960). Put plainly: Two-electrode voltage-clamp recordings, Xenopus oocytes. It counts as cell-based. The settings on record: for Spermine modulation (% control): 100 μM spermine, −20 mV. For orientation: Two-electrode voltage clamp holds a large cell at a set potential and records current.
The next test has as its target GluN1–1a/2BC1/2DC2 (Rattus norvegicus, UniProt P35439+Q00959+Q00960+Q62645, A876H/F846L/G856D/H848F/K857R/M851T/M860L/Q845K/R869K/V861L/V866F). The test is described as above. The class given is cell-based. The settings on record: for Spermine modulation (% control): 100 μM spermine, −20 mV.
In another test the target is GluN1–1b/2B (Rattus norvegicus, UniProt P35439+Q00960). Described as above. It counts as cell-based. As to conditions: isoform 1b.
A further test concerns the target GluN1–1b/2BC1/2DC2 (Rattus norvegicus, UniProt P35439+Q00959+Q00960+Q62645, A876H/F846L/G856D/H848F/K857R/M851T/M860L/Q845K/R869K/V861L/V866F). The description is as above. The class given is cell-based. The settings on record: isoform 1b.
Test [1] deals with NMDA receptors in cerebellar Golgi cells (thought to be mainly GluN1/2B/2D). As to conditions: single-channel recordings, outside-out patches; ref Brickley et al., 2003; cited from earlier work.
For another test, the target named is GluN1–1a/2D (Rattus norvegicus, UniProt P35439+Q62645). Put plainly: Two-electrode voltage-clamp recordings, Xenopus oocytes. It counts as cell-based. The settings on record: for Spermine modulation (% control): 100 μM spermine, −20 mV.
The test system of test [2] is NMDAR-EPSCs in hippocampal CA1 pyramidal cells. Put plainly: Whole-cell patch-clamp of NMDAR-EPSCs in acute hippocampal slices. As to conditions: 100 μM; +40 mV; P21–28 slices. The class given is cell-based, mouse. On the technique in general: In patch-clamp work, channel activity is measured electrically.
Test [3] deals with NMDAR-EPSCs in hippocampal interneurons (CA1 s.r./s.l.m.). The description is as above. The class given is cell-based, mouse.
The target in another test is GluN1–1a/2A (Rattus norvegicus, UniProt P35439+Q00959). As to conditions: 100 μM spermine, −20 mV.
The target in a further test is GluN1–1a/2AC1/2BC2 (Rattus norvegicus, UniProt P35439+Q00959+Q00960, A876H/F846L/G856D/H848F/K857R/M851T/M860L/Q845K/V861L). The settings on record: 100 μM spermine, −20 mV.
[4] abbreviates: at 100 μM, pH 7.4, holding potential −20 mV, isoform 1a.

Where “and” joins values, the source holds several entries; their conditions need not be identical. Identical values can stand only once. Like-named read-outs stand apart in the source and are kept apart here.

GluN1–1a/2B, sequence (Q00960 27-1482, other chains not shown): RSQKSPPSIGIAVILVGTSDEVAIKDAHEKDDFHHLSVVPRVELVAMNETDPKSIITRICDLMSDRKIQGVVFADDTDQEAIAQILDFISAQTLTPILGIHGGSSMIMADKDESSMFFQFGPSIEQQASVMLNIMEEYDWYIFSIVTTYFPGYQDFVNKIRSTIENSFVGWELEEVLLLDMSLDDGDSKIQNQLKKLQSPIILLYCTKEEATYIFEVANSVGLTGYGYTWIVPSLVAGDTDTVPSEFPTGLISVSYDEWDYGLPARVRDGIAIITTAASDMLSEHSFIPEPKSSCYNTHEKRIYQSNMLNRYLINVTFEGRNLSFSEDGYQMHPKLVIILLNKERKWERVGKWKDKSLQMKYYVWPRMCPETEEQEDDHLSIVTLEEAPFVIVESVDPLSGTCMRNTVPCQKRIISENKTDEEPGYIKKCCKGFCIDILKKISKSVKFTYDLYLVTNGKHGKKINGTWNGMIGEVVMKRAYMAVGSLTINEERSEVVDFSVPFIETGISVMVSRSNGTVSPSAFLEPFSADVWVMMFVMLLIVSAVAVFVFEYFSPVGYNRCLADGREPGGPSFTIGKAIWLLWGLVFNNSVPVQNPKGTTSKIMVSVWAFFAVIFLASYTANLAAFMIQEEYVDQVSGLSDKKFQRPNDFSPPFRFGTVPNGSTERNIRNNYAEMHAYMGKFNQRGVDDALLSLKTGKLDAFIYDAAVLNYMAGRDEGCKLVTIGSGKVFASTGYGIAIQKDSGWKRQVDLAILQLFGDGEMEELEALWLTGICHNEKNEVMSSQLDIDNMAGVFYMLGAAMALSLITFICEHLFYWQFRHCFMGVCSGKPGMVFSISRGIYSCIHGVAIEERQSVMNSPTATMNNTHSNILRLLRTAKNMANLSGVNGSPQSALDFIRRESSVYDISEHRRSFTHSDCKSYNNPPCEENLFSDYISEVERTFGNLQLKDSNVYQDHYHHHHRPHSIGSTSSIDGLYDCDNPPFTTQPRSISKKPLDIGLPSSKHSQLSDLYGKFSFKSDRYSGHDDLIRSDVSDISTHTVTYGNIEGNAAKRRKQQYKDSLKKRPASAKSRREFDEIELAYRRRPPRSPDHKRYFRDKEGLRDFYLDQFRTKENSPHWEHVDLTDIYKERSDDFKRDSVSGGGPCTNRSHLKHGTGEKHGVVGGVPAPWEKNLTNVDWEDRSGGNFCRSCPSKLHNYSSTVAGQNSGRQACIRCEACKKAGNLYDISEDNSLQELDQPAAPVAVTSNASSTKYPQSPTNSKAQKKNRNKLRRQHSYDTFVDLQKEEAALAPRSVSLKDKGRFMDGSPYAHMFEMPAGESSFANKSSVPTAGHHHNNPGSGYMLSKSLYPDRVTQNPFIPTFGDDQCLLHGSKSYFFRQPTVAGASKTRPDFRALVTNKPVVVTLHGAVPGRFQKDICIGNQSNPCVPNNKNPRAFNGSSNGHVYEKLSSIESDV
GluN1–1a/2D, sequence (Q62645 28-1323, other chains not shown): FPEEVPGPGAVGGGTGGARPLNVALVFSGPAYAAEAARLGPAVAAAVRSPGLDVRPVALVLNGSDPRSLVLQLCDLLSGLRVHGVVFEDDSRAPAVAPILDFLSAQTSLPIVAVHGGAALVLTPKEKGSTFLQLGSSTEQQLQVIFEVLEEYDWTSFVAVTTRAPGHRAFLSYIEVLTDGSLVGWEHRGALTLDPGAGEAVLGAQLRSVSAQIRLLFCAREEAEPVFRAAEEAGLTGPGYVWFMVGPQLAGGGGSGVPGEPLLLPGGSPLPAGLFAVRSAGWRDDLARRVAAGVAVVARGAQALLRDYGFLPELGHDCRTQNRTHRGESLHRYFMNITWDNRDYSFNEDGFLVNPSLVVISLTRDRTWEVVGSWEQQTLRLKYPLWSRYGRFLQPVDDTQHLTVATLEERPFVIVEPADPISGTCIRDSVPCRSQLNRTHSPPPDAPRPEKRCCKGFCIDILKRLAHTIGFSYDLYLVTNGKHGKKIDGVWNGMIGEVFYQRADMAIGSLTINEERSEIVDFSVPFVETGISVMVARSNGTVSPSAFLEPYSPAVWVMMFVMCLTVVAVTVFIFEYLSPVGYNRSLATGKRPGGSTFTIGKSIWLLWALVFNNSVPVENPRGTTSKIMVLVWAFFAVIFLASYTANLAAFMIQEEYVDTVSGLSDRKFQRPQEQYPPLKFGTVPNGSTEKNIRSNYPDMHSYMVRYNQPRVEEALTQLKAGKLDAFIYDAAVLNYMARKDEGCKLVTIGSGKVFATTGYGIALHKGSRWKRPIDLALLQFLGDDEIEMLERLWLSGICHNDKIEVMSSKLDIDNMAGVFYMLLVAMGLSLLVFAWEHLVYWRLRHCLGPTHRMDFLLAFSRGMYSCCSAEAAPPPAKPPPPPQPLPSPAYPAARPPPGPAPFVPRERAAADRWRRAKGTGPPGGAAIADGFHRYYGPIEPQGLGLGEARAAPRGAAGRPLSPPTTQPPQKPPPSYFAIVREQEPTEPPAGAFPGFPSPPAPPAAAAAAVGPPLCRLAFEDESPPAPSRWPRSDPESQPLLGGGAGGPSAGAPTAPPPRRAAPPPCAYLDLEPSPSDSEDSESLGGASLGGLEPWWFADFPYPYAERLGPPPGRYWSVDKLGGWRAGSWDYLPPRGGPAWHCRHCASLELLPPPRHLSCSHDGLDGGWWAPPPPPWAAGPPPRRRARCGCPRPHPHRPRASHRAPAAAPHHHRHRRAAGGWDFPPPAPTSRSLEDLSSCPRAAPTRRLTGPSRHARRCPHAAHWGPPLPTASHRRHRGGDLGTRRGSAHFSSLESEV
GluN1–1a/2A, sequence (Q00959 23-1464, other chains not shown): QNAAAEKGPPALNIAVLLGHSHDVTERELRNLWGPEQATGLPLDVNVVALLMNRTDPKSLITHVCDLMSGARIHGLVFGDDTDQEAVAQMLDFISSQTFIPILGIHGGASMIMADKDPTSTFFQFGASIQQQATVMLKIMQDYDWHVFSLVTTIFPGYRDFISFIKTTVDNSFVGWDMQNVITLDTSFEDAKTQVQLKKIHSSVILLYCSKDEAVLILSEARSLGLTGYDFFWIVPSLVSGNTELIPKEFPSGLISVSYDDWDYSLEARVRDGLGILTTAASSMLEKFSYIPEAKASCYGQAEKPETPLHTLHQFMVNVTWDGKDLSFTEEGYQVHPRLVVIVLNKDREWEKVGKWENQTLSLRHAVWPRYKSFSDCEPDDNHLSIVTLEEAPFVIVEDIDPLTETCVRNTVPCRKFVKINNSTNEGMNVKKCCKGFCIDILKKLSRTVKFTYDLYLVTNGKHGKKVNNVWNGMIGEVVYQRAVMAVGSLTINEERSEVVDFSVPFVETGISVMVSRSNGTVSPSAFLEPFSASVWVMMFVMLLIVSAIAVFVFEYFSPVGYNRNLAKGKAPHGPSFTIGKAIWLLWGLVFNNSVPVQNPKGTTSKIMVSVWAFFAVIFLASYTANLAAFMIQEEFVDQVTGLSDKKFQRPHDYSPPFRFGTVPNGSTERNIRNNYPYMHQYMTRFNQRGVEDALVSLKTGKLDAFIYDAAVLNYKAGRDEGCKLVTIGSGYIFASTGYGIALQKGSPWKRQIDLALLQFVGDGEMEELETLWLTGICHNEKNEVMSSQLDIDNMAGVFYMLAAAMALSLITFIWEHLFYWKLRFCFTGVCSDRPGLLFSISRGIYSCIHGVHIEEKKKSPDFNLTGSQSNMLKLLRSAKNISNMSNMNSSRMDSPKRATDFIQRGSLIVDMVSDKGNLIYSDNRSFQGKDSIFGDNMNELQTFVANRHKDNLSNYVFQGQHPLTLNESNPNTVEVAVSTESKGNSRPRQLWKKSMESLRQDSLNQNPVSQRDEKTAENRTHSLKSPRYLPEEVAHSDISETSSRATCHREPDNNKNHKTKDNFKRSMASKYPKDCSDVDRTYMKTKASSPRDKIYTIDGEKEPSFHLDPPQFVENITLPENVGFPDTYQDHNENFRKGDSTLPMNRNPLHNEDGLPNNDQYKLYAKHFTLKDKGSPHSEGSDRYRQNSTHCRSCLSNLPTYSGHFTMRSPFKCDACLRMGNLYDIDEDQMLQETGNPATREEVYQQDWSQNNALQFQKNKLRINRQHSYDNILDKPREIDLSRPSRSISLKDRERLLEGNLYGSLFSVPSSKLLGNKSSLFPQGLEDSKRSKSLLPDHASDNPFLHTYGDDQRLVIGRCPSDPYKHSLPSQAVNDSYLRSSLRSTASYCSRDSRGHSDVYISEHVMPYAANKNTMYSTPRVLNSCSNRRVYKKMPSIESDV

Consider `CC(C(O)c1ccc(O)cc1)N1CCC(Cc2ccccc2)CC1` (centres unmarked) [ifenprodil], for which the “nH (Hill coefficient)” value at GluN1–1a/2B (inhibition, isoform 1a) is on record as 1.1; at GluN1–1a/2BC1/2DC2 (inhibition, isoform 1a) it was 1.1; on GluN1–1b/2B (inhibition), 1.8; on GluN1–1b/2BC1/2DC2 (inhibition), 1.1. Further, the maximal inhibition at GluN1–1a/2B (isoform 1a) was ~ 95%; at GluN1–1a/2BC1/2DC2 (isoform 1a) it was ~ 65%; on GluN1–1b/2B it was 88%; at GluN1–1b/2BC1/2DC2 it was 69%; in [1], 71.5%. For the same compound, the IC50 (usually the point on the concentration scale where inhibition reaches its midpoint) in test [1] is 129 nM.

Regarding `NCCCNCCCCNCCCN` [spermine], the “Spermine modulation (% control)” value at GluN1–1a/2B (pH 6.8) is listed as 585 ± 29 % control; on GluN1–1a/2B (pH 7.4), 211 ± 6 % control; at GluN1–1a/2B (pH 7.4, listed as Spermine), 211 % control; on GluN1–1a/2BC1/2DC2 (pH 6.8), 233 ± 10 % control; at GluN1–1a/2BC1/2DC2 (pH 7.4) it was 150 ± 2 % control; at GluN1–1a/2BC1/2DC2 (pH 7.4, listed as Spermine), 150 % control. Moreover, the “Spermine modulation (% control)” value was 82 ± 1 % control at GluN1–1a/2D (pH 6.8); 71 ± 0.4 % control at GluN1–1a/2D (pH 7.4); 71 % control on GluN1–1a/2D (pH 7.4, listed as Spermine); 79 ± 1 % control on GluN1–1a/2A (pH 6.8); 72 % control and 72 ± 1 % control at GluN1–1a/2A (pH 7.4); 95 ± 0.1 % control at GluN1–1a/2AC1/2BC2 (pH 6.8). Besides, on GluN1–1a/2AC1/2BC2 (pH 7.4), the “Spermine modulation (% control)” value was 80 ± 1 % control. For the same compound, the “Relative Imax” value was determined as 211 ± 6% at GluN1–1a/2B (setting [4]), 150 ± 2% at GluN1–1a/2BC1/2DC2 (setting [4]) and 71 ± 0.4% at GluN1–1a/2D (setting [4]). Further, the “NMDAR-EPSC peak amplitude, % of baseline” value in test [2] is recorded as 95 ± 5 % of baseline; in [3] (100 μM, +40 mV, P21–28 slices), 137 ± 13 % of baseline. For the same compound, the “effect on EPSC decay time” value in test [3] (treatment versus baseline, paired t test, 10 μM (spermine 100 μM)) is on record as “unchanged”.
